{"source": "ChEMBL document CHEMBL5230103", "about": "“Hydroxamic acid hybrids as the potential anticancer agents: An Overview” (Eur J Med Chem, 2020)", "key": {"518A2 [1]": {"tested_on": "518A2", "assay": "Cytotoxicity against human 518A2 cells assessed as inhibition of cell growth by MTT assay", "assay_type": "functional, cell-based"}, "[2]": {"assay": "Selectivity index, ratio of IC50 for cytotoxicity against human HDFa cells to IC50 for cytotoxicity against human 518A2 cells", "assay_type": "toxicity, cell-based", "conditions": "HDFa cells and 518A2 cells, pooled result: one value given for 6 cell lines, strains, targets or settings, read-out: Ratio IC50"}, "DLD-1 [3]": {"tested_on": "DLD-1", "assay": "Potency index, ratio of vorinostat IC50 to test compound IC50 for cytotoxicity against human DLD-1 cells", "assay_type": "functional"}, "HT-29 [4]": {"tested_on": "HT-29", "assay": "Potency index, ratio of vorinostat IC50 to test compound IC50 for cytotoxicity against human HT-29 cells", "assay_type": "functional"}, "MCF7 [5]": {"tested_on": "MCF7", "assay": "Potency index, ratio of vorinostat IC50 to test compound IC50 for cytotoxicity against human MCF7 cells", "assay_type": "functional"}, "EA.hy 926": {"tested_on": "EA.hy 926", "assay": "Potency index, ratio of vorinostat IC50 to test compound IC50 for cytotoxicity against human EA.hy 926 cells", "assay_type": "functional"}, "[6]": {"assay": "Cytotoxicity against human HDFa cells assessed as inhibition of cell proliferation by MTT assay", "assay_type": "toxicity, cell-based"}, "KB-V1 [7]": {"tested_on": "KB-V1", "assay": "Cytotoxicity against human KB-V1 cells assessed as inhibition of cell growth by MTT assay", "assay_type": "functional, cell-based"}, "HT-29 [8]": {"tested_on": "HT-29", "assay": "Cytotoxicity against human HT-29 cells assessed as inhibition of cell growth by MTT assay", "assay_type": "functional, cell-based"}, "MCF7 [9]": {"tested_on": "MCF7", "assay": "Cytotoxicity against human MCF7 cells assessed as inhibition of cell growth by MTT assay", "assay_type": "functional, cell-based"}, "518A2 [10]": {"tested_on": "518A2", "assay": "Potency index, ratio of vorinostat IC50 to test compound IC50 for cytotoxicity against human 518A2 cells", "assay_type": "functional"}, "DLD-1 [11]": {"tested_on": "DLD-1", "assay": "Cytotoxicity against human DLD-1 cells assessed as inhibition of cell growth by SRB assay", "assay_type": "functional, cell-based"}, "KB-V1 [12]": {"tested_on": "KB-V1", "assay": "Potency index, ratio of vorinostat IC50 to test compound IC50 for cytotoxicity against human KB-V1 cells", "assay_type": "functional"}, "NCI-H1299": {"tested_on": "NCI-H1299", "assay": "Cytotoxicity against human NCI-H1299 cells assessed as inhibition of cell growth by MTT assay", "assay_type": "functional, cell-based"}, "HCT-116": {"tested_on": "HCT-116", "assay": "Cytotoxicity against human HCT-116 cells assessed as inhibition of cell growth by MTT assay", "assay_type": "functional, cell-based"}, "HepG2": {"tested_on": "HepG2", "assay": "Cytotoxicity against human HepG2 cells assessed as inhibition of cell growth by MTT assay", "assay_type": "functional, cell-based"}, "SMMC-7721": {"tested_on": "SMMC-7721", "assay": "Cytotoxicity against human SMMC-7721 cells assessed as inhibition of cell growth by MTT assay", "assay_type": "functional, cell-based"}, "HT-29 [13]": {"tested_on": "HT-29", "assay": "Antitumor activity against human HT-29 cells xenografted in mouse assessed as tumor growth inhibition at 50 mg/kg, po relative to control", "assay_type": "functional", "conditions": "read-out: TGI"}, "HT-29 [14]": {"tested_on": "HT-29", "assay": "Antitumor activity against human HT-29 cells xenografted in mouse assessed as tumor growth inhibition at 25 mg/kg, po relative to control", "assay_type": "functional", "conditions": "read-out: TGI"}, "HT-29 [15]": {"tested_on": "HT-29", "assay": "Antitumor activity against human HT-29 cells xenografted in mouse assessed as tumor growth inhibition at 100 mg/kg, po relative to control", "assay_type": "functional", "conditions": "read-out: TGI"}, "Kasumi 1": {"tested_on": "Kasumi 1", "assay": "Cytotoxicity against human Kasumi 1 cells assessed as inhibition of cell growth by MTT assay", "assay_type": "functional, cell-based"}, "NB-4": {"tested_on": "NB-4", "assay": "Cytotoxicity against human NB-4 cells assessed as inhibition of cell growth by MTT assay", "assay_type": "functional, cell-based"}, "A549": {"tested_on": "A549", "assay": "Cytotoxicity against human A549 cells assessed as inhibition of cell growth by MTT assay", "assay_type": "functional, cell-based"}, "[16]": {"assay": "Cytotoxicity against human RWPE-1 cells assessed as inhibition of cell growth by MTT assay", "assay_type": "toxicity, cell-based"}, "MDA-MB-231": {"tested_on": "MDA-MB-231", "assay": "Cytotoxicity against human MDA-MB-231 cells assessed as inhibition of cell growth by MTT assay", "assay_type": "functional, cell-based"}, "[17]": {"molecular_target": "T1, Protein deacetylase HDAC6 (Homo sapiens, UniProt Q9UBN7)", "T1 sequence (Q9UBN7 whole entry)": "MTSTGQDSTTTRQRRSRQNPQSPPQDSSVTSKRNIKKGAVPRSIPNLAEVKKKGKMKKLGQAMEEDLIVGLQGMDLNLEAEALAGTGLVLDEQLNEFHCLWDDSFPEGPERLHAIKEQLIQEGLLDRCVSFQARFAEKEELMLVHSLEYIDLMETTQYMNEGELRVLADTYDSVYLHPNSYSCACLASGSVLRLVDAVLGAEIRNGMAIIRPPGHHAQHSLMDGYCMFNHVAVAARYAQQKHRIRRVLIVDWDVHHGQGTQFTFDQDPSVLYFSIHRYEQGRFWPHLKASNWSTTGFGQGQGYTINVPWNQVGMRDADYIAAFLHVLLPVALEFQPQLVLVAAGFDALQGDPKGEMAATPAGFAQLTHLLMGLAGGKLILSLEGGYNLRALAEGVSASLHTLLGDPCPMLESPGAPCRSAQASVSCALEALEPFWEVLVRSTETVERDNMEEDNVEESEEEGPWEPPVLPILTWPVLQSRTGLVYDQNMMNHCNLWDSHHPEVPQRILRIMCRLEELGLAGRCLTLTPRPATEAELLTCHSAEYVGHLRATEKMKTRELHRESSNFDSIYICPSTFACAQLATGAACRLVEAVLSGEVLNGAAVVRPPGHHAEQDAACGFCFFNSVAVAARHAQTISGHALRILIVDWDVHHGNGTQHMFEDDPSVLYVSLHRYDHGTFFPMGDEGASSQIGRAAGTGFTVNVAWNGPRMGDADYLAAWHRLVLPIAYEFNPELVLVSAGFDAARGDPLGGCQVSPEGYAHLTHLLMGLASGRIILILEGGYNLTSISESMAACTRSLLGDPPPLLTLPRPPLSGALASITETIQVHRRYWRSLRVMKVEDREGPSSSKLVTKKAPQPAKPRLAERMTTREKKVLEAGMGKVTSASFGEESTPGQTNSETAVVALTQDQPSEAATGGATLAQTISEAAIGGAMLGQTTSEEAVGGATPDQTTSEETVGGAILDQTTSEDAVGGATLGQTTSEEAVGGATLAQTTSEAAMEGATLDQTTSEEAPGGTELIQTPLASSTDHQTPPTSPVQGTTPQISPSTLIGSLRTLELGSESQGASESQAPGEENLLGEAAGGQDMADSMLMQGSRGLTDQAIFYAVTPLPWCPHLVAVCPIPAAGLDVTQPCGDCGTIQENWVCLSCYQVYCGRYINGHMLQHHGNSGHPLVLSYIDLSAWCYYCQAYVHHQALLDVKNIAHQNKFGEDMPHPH", "assay": "Inhibition of HDAC6 (unknown origin)"}, "Histone deacetylase 1": {"molecular_target": "Histone deacetylase 1 (Homo sapiens, UniProt Q13547)", "sequence (Q13547 whole entry)": "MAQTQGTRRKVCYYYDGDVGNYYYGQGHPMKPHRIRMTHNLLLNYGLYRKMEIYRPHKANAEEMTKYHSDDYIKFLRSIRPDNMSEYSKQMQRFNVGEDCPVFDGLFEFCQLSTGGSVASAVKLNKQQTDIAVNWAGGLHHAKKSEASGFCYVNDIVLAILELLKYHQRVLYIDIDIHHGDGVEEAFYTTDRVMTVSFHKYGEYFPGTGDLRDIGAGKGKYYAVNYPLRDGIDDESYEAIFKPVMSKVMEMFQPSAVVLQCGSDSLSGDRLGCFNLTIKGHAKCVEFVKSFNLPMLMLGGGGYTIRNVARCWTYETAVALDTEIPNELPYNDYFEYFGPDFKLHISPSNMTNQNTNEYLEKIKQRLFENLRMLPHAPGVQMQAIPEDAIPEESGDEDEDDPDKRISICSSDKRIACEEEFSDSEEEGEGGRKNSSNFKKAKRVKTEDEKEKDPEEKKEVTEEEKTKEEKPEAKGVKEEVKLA", "assay": "Inhibition of HDAC1 (unknown origin)"}, "[18]": {"assay": "Cytotoxicity against African green monkey Vero cells assessed as inhibition of cell growth by MTT assay", "assay_type": "toxicity, cell-based, Chlorocebus sabaeus"}, "PC-3": {"tested_on": "PC-3", "assay": "Cytotoxicity against human PC-3 cells assessed as inhibition of cell growth by MTT assay", "assay_type": "functional, cell-based"}}, "note": "pIC50: −log10 of the molar value.", "data": [{"compound": "COc1ccc(-c2ocnc2-c2cc(Br)c(OC)c(OC)c2)cc1OCCCC(=O)NO", "values": [{"measurement": "pIC50", "setting": "518A2 [1]", "result": 7.74}, {"measurement": "selectivity ratio", "setting": "[2]", "result": 8.5}, {"measurement": "Ratio IC50", "setting": "DLD-1 [3]", "result": 1.2}, {"measurement": "Ratio IC50", "setting": "HT-29 [4]", "result": 1.2}, {"measurement": "Ratio IC50", "setting": "MCF7 [5]", "result": 1.2}, {"measurement": "Ratio IC50", "setting": "EA.hy 926", "result": 1.2}, {"measurement": "pIC50", "setting": "[6]", "result": 4.62}, {"measurement": "pIC50", "setting": "KB-V1 [7]", "result": 7.74}, {"measurement": "pIC50", "setting": "HT-29 [8]", "result": 7.74}, {"measurement": "pIC50", "setting": "MCF7 [9]", "result": 7.74}, {"measurement": "Ratio IC50", "setting": "518A2 [10]", "result": 1.2}, {"measurement": "pIC50", "setting": "DLD-1 [11]", "result": 7.74}, {"measurement": "Ratio IC50", "setting": "KB-V1 [12]", "result": 1.2}]}, {"compound": "COc1ccc(-c2nc(C(=O)N(CCN(C)C)Cc3ccc(C(=O)NO)cc3)cc3c2[nH]c2ccccc23)cc1", "values": [{"measurement": "pIC50", "setting": "NCI-H1299", "result": 5.80}, {"measurement": "pIC50", "setting": "HCT-116", "result": 5.80}, {"measurement": "pIC50", "setting": "HepG2", "result": 5.80}, {"measurement": "pIC50", "setting": "SMMC-7721", "result": 5.80}]}, {"compound": "C[C@H](NC(=O)c1nc(-c2ncc(-c3ccccc3)s2)sc1C1CC1)c1ccc(C(=O)NO)cc1", "values": [{"measurement": "inhibition in vivo at 50 mg/kg", "setting": "HT-29 [13]", "result": 40.7, "unit": "%"}, {"measurement": "inhibition in vivo at 25 mg/kg", "setting": "HT-29 [14]", "result": 39.4, "unit": "%"}, {"measurement": "inhibition in vivo at 100 mg/kg", "setting": "HT-29 [15]", "result": 62.5, "unit": "%"}]}, {"compound": "Cn1c(CCCCCCC(=O)NO)nc2cc(N(CCCl)CCCl)ccc21", "note": "[TINOSTAMUSTINE]", "values": [{"measurement": "pIC50", "setting": "Kasumi 1", "result": 6.09}, {"measurement": "pIC50", "setting": "NB-4", "result": 6.05}]}, {"compound": "N#Cc1cccc(-c2cn(CCCCCCn3cccc(/C=C/C(=O)NO)c3=O)nn2)c1", "values": [{"measurement": "pIC50", "setting": "A549", "result": 6.22}, {"measurement": "pIC50", "setting": "[16]", "result": "< 4.30"}, {"measurement": "pIC50", "setting": "HepG2", "result": 6.22}, {"measurement": "pIC50", "setting": "MDA-MB-231", "result": 6.22}, {"measurement": "pIC50", "setting": "[17]", "result": 7.31}, {"measurement": "pIC50", "setting": "Histone deacetylase 1", "result": 7.46}, {"measurement": "pIC50", "setting": "[18]", "result": "< 4.30"}, {"measurement": "pIC50", "setting": "PC-3", "result": 6.22}]}]}
